SMILES strings stand for the structures. Structures can show the parent of a compound that is named as a salt.

A short description of data set [1]: thermal reversion halflife of spontaneous cis->trans isomerisation. Type of data set: physicochemical. Conditions: PBS pH = 7.4, 20% MeCN. An excerpt:
Finally, trends in τ were ascertained by establishing the PSS at λstrong, then turning off the light source at time t0, and measuring A(λstrong, t) over time. Data were acquired for half an hour, or else the first three halflives (whichever was the shorter period), then fitted to the equation:
A(λstrong,t)=A(λstrong,dark)−[A(λstrong,dark)−A(λstrong,t0)]×e^−kt
This fit was used to return an in vitro halflife τ* for the cis->trans spontaneous thermal reversion isomerisation process, defined as τ=ln 2/k. It should be noted however, that azoaryl compounds' thermal reversion rates are known to depend strongly upon their microenvironment, such as pH and solvent/solvation effects^[7,38]. This was shown for compound (I.1), where a change of only 1.4 pH units gave a 25% change in τ*; note that different compounds are expected to respond very differently to changes in pH so no unifying trends are expected. Therefore the τ* acquired in vitro were considered appropriate only for qualitative intercomparison between samples (trend of τ* vs structure), rather than quantitative prediction of the τ values which might be experienced in cellulo or in vivo. Indeed, these in vitro τ* values appeared at least three times longer than what would have been expected based on in cellulo experiments where the pause time between activating pulses was varied.
Thermal reversion times were measured as described above. Those for selected compounds are presented below (Table 2).

Data set [2] is described as follows: UV-Vis absorption spectra of trans and cis isomers (λstrong, εE, λiso). It counts as physicochemical. Conditions: PBS pH = 7.4, 20% MeCN. The procedure: A(λmeas, λirrad) is used to indicate the measured UV-Vis absorption spectrum in the range 340 nm<λmeas<650 nm, as a function of the irradiating wavelength λirrad once PSS(λirrad) has been established. UV-Vis measurement of A(λmeas, λirrad) was performed. It was considered that the PSS had been established when the absorbance profile ceased to alter under continued irradiation. An isosbestic point (wavelength λiso) was found for each compound by examining where the absorption A(λmeas) was invariant with respect to changing λirrad. A(λmeas, dark) was also acquired with samples that had been kept in the dark for at least several hours, and it was assumed that no significant spectral contribution from the cis isomer was present in these spectra. […]
HPLC (high-performance liquid chromatography) was then used as described in Part A to measure ε*E(λ) and ε*Z(λ) (the separated absorption profiles of trans and cis isomers respectively, in arbitrary units which are not intercomparable in an absolute sense). It was approximated that these spectra would be identical in shape if measured under the UV-Vis conditions, so once ε*E(λ) and ε*Z(λ) were scaled appropriately relative to each other, these scaled spectra could be used to deconvolute A(λmeas, λirrad). This approximation was considered useful especially in the regions of greatest spectral interest, ie. regions of relatively strong absorption (since only rather well-absorbed wavelengths will allow significant photoisomerisation under finite photon flux). To place the arbitrary-unit absorption spectra on an absolute scale, the maximal absorption wavelength λstrong of the trans-isomer was first selected by examining A(λmeas, dark): typically, λstrong≈380 nm. with Expressing A(λstrong, dark) in units M^−1cm^−1, ε*E(λstrong) was then scaled so that εE(λstrong)=A(λstrong, dark), giving:
εE(λ)=ε*E(λ)×[A(λstrong,dark)/ε*E(λstrong)]
and the isosbestic point was used to scale the cis-isomer spectrum as per:
εZ(λ)=ε*Z(λ)×[εE(λiso)/ε*Z(λiso)]
However, using A(λstrong, dark) was preferred, since A(λiso) was typically so much smaller that the standard deviation in the scaled absorptivities which it generated was far greater.
Absorption spectra in cuvette (“UV-Vis”) were acquired on a Varian CaryScan 50 (1 cm, 100 μL or 1 mL volume) with Peltier cell temperature control unit maintained at 37° C., in PBS at pH˜7.4 containing a low percentage of cosolvent if needed (typically 2% MeCN or 5% DMSO). A ThorLabs Polychrome V monochromator with a fibre optic cable output directed into the cuvette was used to perform photoisomerisation studies by UV-Vis spectrophotometry although single LEDs of approximately 10-20 mW output, 15-20° cone angle, and 10-15 nm bandwidth FWHM, obtained commercially from Roithner Lasertechnik GmbH, were equally successful in providing repeatable monochromatic photoisomerisation. Separated spectra of trans and […] forms were acquired from the inline Diode Array Detector on the AGILENT 1260 SL coupled LC-MS system after HPLC separation. Fluorescence spectrophotometry (excitation and emission spectra) were acquired on a Varian CaryEclipse fluorescence spectrophotometer.
By the above procedure, the trans- and cis-isomers of each species were separated by HPLC as described in Part A, and ε*E(λ) and ε*Z(λ) were measured on the inline ultraviolet/visible Diode Array Detector; these were then scaled as outlined above. The parameters λstrong, εE(λstrong) and λiso are tabulated for selected compounds below (Table 1).

The test system of another data set is HeLa cells. Briefly: cytotoxicity by crystal violet staining. It counts as cell-based. Conditions: 40 h. As to the method:
Seven of the compounds according to the invention were selected for biological tests. Their cytotoxicity was assessed using crystal violet staining as adapted from standard procedure^[31]. Briefly, HeLa cells were seeded on 96-well plates, treated with the given concentrations of the selected compound, and exposed or not to the pulse protocol of illumination with light at 390 nm (pulses of 75 ms every 15 s). After 40 h cells were stained with crystal violet solution (0.5% crystal violet in 20% methanol) for 10 min. Unbound crystal violet was removed by rinsing with distilled water and cells were air-dried. Crystal violet was subsequently eluted from cells with 0.1 M sodium citrate in 50% ethanol. The absorbance of crystal violet is proportional to the cell number and was determined at 590 nm with a FLUOstar Omega microplate reader (BMG Labtech).
Each compound was tested at 6 doses: 100 nM, 500 nM, 1 μM, 2 μM, 5 μM and 10 μM. In order to ensure their solubility in the cell culture media, DMSO was used as a co-solvent, and to provide comparability between all samples the volume of DMSO was adjusted to obtain its final concentration as 1% in the cell culture media for all the compounds at all concentrations tested.
Results presented in Table 4 below are expressed as a fold growth relative to the control growth of the cells treated only with a co-solvent (1% DMSO), and are represented as a mean value from triplicates coming from a representative experiment.

The mark [3] stands for this setting: 100 nM, 390 nm (75 ms every 15 s).
The mark [4] stands for this setting: 500 nM, 390 nm (75 ms every 15 s).
The mark [5] stands for this setting: 1 μM, 390 nm (75 ms every 15 s).
The mark [6] stands for this setting: 2 μM, 390 nm (75 ms every 15 s).
[7] abbreviates: 5 μM, 390 nm (75 ms every 15 s).
Where [8] appears, read: 10 μM, 390 nm (75 ms every 15 s).

On to `COc1ccc(N=Nc2cc(OC)c(OC)c(OC)c2)c(F)c1F` [I.5, 1-(2,3-difluoro-4-methoxyphenyl)-2-(3,4,5-trimethoxyphenyl)diazene], for which the “τ, reversion time” value in data set [1] was determined as 134 min. In data set [2], the “εE(λstrong)” value came to 19578 M⁻¹ cm⁻¹, the λiso came to 450 nm and the λstrong is 365 nm.
Turning to `COc1cc(N=Nc2ccc(OC)c([N+](=O)[O-])c2F)cc(OC)c1OC` [I.7, 1-(2-fluoro-4-methoxy-3-nitrophenyl)-2-(3,4,5-trimethoxyphenyl)diazene], in data set [1], the “τ, reversion time” value is listed as 50 min. Also, in data set [2], the “εE(λstrong)” value came to 13600 M⁻¹ cm⁻¹, the λiso was found to be 455 nm and the λstrong is on record as 365 nm.
Taken in the same sequence, the figures for `COc1ccc(N=Nc2cc(F)c(OC)c(F)c2)cc1` [I.9, 1-(3,5-difluoro-4-methoxyphenyl)-2-(4-methoxyphenyl)diazene] were 116 min, 11400 M⁻¹ cm⁻¹, 430 nm and 355 nm.
Turning to `COc1ccc(N=Nc2cc(OC)c(OC)c(OC)c2)cc1OC(=O)N1CCCCC1CNC(=O)[C@@H](N)CC(C)C` (stereo partly drawn) [I.10, (2-methoxy 5-((3,4,5-trimethoxyphenyl)diazenyl)phenyl) 2-((L-leucinamido)methyl)piperidine 1-carboxylate 2,2,2-trifluoroacetate salt], the mean fold growth was 0.986 fold in the data set with HeLa cells (setting [3]); 0.95 fold with HeLa cells (100 nM, Dark); 0.945 fold in the data set with HeLa cells (setting [4]); 0.99 fold with HeLa cells (500 nM, Dark); 0.387 fold with HeLa cells (setting [5]); 0.92 fold in the data set with HeLa cells (1 μM, Dark). In addition, the mean fold growth in the data set on HeLa cells (setting [6]) is recorded as 0.357 fold; with HeLa cells (2 μM, Dark) it was 0.90 fold; in the data set on HeLa cells (setting [7]) it was 0.217 fold; in the data set on HeLa cells (5 μM, Dark) it was 0.99 fold; in the data set with HeLa cells (setting [8]) it was 0.293 fold; with HeLa cells (10 μM, Dark) it was 0.78 fold.
In the case of `COc1ccc(N=Nc2cc(OC)c(OC)c(OC)c2)cc1OC` [I.11, 1-(3,4-dimethoxyphenyl)-2-(3,4,5-trimethoxyphenyl)diazene], the “τ, reversion time” value in data set [1] was 40 min. Moreover, in data set [2], the “εE(λstrong)” value came to 18163 M⁻¹ cm⁻¹, the λiso was determined as 460 nm and the λstrong amounted to 375 nm.
As for `COc1ccc(N=Nc2cc(OC)c(OC)c(OC)c2)c(OC)c1` [I.12, 1-(2,4-dimethoxyphenyl)-2-(3,4,5-trimethoxyphenyl)diazene], the “τ, reversion time” value in data set [1] was found to be 28 min. In data set [2], the “εE(λstrong)” value is 12400 M⁻¹ cm⁻¹, the λiso was found to be 485 nm and the λstrong amounted to 380 nm.
As to `COc1ccc(N=Nc2cc(OC)c(OC)c(OC)c2)cn1` [I.13, 2-methoxy-5-((3,4,5-trimethoxyphenyl)diazenyl)pyridine], the “τ, reversion time” value in data set [1] was determined as 270 min. In addition, in data set [2], the “εE(λstrong)” value was 14200 M⁻¹ cm⁻¹, the λiso was found to be 440 nm and the λstrong is reported as 355 nm.
Turning to `COc1cc(N=Nc2ccc(OC)c3ncccc23)cc(OC)c1OC` [I.14, 8-methoxy-5-((3,4,5-trimethoxyphenyl)diazenyl)quinoline], the “τ, reversion time” value in data set [1] is 3.3 min. In data set [2], the “εE(λstrong)” value came to 18000 M⁻¹ cm⁻¹, the λiso was 485 nm and the λstrong is reported as 390 nm.
As for `COc1ccc(N=Nc2cc(OC)c(OC)c(OC)c2)cc1NC(=O)[C@@H](N)CO` [I.20, (2-methoxy 5-((3,4,5-trimethoxyphenyl)diazenyl)phenyl)) 1-L-serinamide 2,2,2-trifluoroacetate salt], the mean fold growth was 1.09 fold with HeLa cells (setting [3]); 0.99 fold in the data set with HeLa cells (100 nM, Dark); 1.10 fold in the data set on HeLa cells (setting [4]); 1.11 fold in the data set with HeLa cells (500 nM, Dark); 1.00 fold in the data set on HeLa cells (setting [5]); 1.12 fold with HeLa cells (1 μM, Dark). The mean fold growth in the data set on HeLa cells (setting [6]) is reported as 0.96 fold; with HeLa cells (2 μM, Dark), 1.10 fold; in the data set with HeLa cells (setting [7]), 0.68 fold; in the data set on HeLa cells (5 μM, Dark) it was 1.03 fold; with HeLa cells (setting [8]) it was 0.51 fold; in the data set with HeLa cells (10 μM, Dark) it was 1.01 fold.
Consider `COc1ccc(N=Nc2cc(OC)c(OC)c(OC)c2)c(NC(C)=O)c1` [I.26, N-(5-methoxy-2-((3,4,5-trimethoxyphenyl)diazenyl)phenyl)acetamide], for which the “τ, reversion time” value in data set [1] stood at 8.4 min. For the same compound, in data set [2], the “εE(λstrong)” value came to 16300 M⁻¹ cm⁻¹, the λiso was 475 nm and the λstrong was 380 nm.
Take `COc1ccc(N=Nc2cc(OC)c(OC)c(OC)c2)cc1Br` [I.27, 1-(3-bromo-4-methoxyphenyl)-2-(3,4,5-trimethoxyphenyl)diazene]: in data set [1], the “τ, reversion time” value was 129 min. Besides, in data set [2], the “εE(λstrong)” value was determined as 19540 M⁻¹ cm⁻¹, the λiso amounted to 445 nm and the λstrong stood at 365 nm.
Taken in the same sequence, the figures for `COc1ccc(N=Nc2cc(OC)c(OC)c(OC)c2)cc1C=O` [I.28, 2-methoxy-5-((3,4,5-trimethoxyphenyl)diazenyl)benzaldehyde] were 248 min, 17813 M⁻¹ cm⁻¹, 452 nm and 360 nm.
On to `COc1ccc(N=Nc2cc(OC)c(OC)c(OC)c2)cc1C(=O)O` [I.29, 2-methoxy-5-((3,4,5-trimethoxyphenyl)diazenyl)benzoic acid], for which the “τ, reversion time” value in data set [1] is on record as 104 min. For the same compound, in data set [2], the “εE(λstrong)” value was found to be 20102 M⁻¹ cm⁻¹, the λiso was determined as 447 nm and the λstrong is recorded as 365 nm.
